Assay results taken from patent publication US7547519B2, “Methods of diagnosing multidrug resistant tuberculosis” (The United States of America as represented by the …, priority 2000, dated 2009).
Values after ≈ are worked out from the molar mass of the structure shown.

Assays:
MTb H37Rv = conditions: wild type MTb; cited from earlier work
MSm = test: microbe, parasite or virus in culture; type: cell-based, Mycobacterium smegmatis

CCc1cc(C(N)=S)ccn1 [ETA, ethionamide]
MIC (MTb H37Rv): 1.0 µg/mL (≈ 6.02 µM) | concentration at which growth occurred (MSm): 50 µg/mL | concentration at which transformants were able to grow (MSm): greater than 200 μg/ml | concentration with noticeable growth inhibition (MSm): 2.5 µg/mL | MIC (MSm; Mycolicibacterium smegmatis): > 62.5 µg/mL

CCc1cc(C(N)=S=O)ccn1 [ETA S-oxide]
absolute MIC compared with ETA (MSm): lower | effect of EtaR/EtaA overexpression on susceptibility (MSm): EtaR conferred resistance and EtaA conferred hypersensitivity

NNC(=O)c1ccncc1 [INH, isoniazid]
susceptibility to killing (MSm): equally susceptible
